{"source": "patent US5843916A", "about": "“Cyclic amp analogues, individually and in pairs, to inhibit neoplastic cell growth” (priority 1994, dated 1998)", "key": {"[1]": {"test_system": "two mammary, one lung, and one colon tumor", "assay": "Advanced-stage human tumor xenografts, ip infusion", "format": "in vivo, human xenograft in athymic CD-1 mice", "conditions": "seven day ip infusion", "protocol": "(§1) Based on the findings with the […] leukemia model, the efficacy of the 8-Cl-cAMP-Na+infusions were evaluated in advanced-stage human tumor xenograft models. Tumor fragments of approximately 14 mg were implanted subcutaneously in athymic CD-1 female mice and seven day intraperitoneal infusions of the cyclic nucleotide were initiated three weeks later when mean tumor weights had reached 300-400 mg. Tumor measurements were recorded on the initial day of treatment (staging day) and one day after treatment was completed (staging day +7), and were used to calculate changes in tumor weights."}, "LOVO Colon carcinoma": {"test_system": "LOVO Colon carcinoma", "assay": "Growth of human colon tumor xenograft, ip infusion (Table 9)", "format": "in vivo, human xenograft in athymic CD-1 mice", "conditions": "7 days", "protocol": "as §1\n(§2) *Mean tumor weight per group on staging day.\n(§3) $Mean tumor weight per group on staging day +7.\n(§4) **Change in test tumor wt (finalinitial)/initial test tumor treatment.\n(§5) Denoted by negative value.\n(§6) $$Change in test tumor wt/change in control tumor wt. Used where test\n(§7) tumor size increased during treatment. Denoted by positive value."}, "LX-1-Lung carcinoma": {"test_system": "LX-1-Lung carcinoma", "assay": "Growth of human lung tumor xenograft, ip infusion (Table 9)", "format": "in vivo, human xenograft in athymic CD-1 mice", "conditions": "7 days", "protocol": "as §1, §2, §3, §4, §5, §6, §7"}, "[2]": {"test_system": "MDA-MB-231 mammary carcinoma", "assay": "Growth of human mammary tumor xenograft, ip infusion (Table 8)", "format": "in vivo, human xenograft in athymic CD-1 mice", "conditions": "7 days; for % Δ T/T or % Δ T/ΔC: positive = ΔT/ΔC", "protocol": "as §1, §2, §3, §4, §5, §6, §7"}, "MX-1 mammary carcinoma": {"test_system": "MX-1 mammary carcinoma", "assay": "Growth of human mammary tumor xenograft, ip infusion (Table 8)", "format": "in vivo, human xenograft in athymic CD-1 mice", "conditions": "7 days; for % Δ T/T or % Δ T/ΔC: negative = ΔT/T", "protocol": "as §1, §2, §3, §4, §5, §6, §7"}, "L1210 leukemia": {"test_system": "L1210 leukemia", "assay": "Life span of L1210-inoculated BDF1 mice (Table 7)"}, "LoVo colon tumors": {"test_system": "LoVo colon tumors", "assay": "Subcutaneous infusion in tumor-bearing mice", "format": "in vivo, human xenograft in athymic NCR-NU mice", "conditions": "sc infusion approximately 42 mg/kg/day (1 mg/mouse), seven days"}, "[3]": {"assay": "Toxicity in non-tumor BDF1 mice (Table 6)", "format": "in vivo, mouse", "conditions": "mouse, in vivo; for mortality: qd, day 1, read-out: Toxic deaths, No. killed/No. treated", "protocol": "(§8) Influence of 8-Cl-cAMP-Na^+ on the life span of\n(§9) non-tumor BDF1 mice when delivered i.p. by bolus injection\n(§10) When delivered qd, day 1 to nontumor BDF1 mice, the 480 and 288 mg/k"}, "BDF1 mice": {"test_system": "BDF1 mice", "assay": "Toxicity in non-tumor BDF1 mice (Table 6)", "format": "in vivo, mouse", "conditions": "for Toxic deaths, No. killed/No. treated: qd, day 1", "protocol": "as §8, §9, §10"}}, "note": "Read-outs that look alike come from different tables or passages of the source."}
{"smiles": "Nc1ncnc2c1nc(Cl)n2[C@@H]1O[C@@H]2COP(=O)(O)O[C@H]2[C@H]1O", "note": "[8-Cl-cAMP-Na^+]", "values": [{"measurement": "tumor growth during treatment", "setting": "[1]", "value": "caused tumor stasis during treatment"}, {"measurement": "Final Mean Tumor Wt", "setting": "LOVO Colon carcinoma; 37 mg/kg/day, initial 288 mg", "value": 284, "unit": "mg"}, {"measurement": "% Δ T/T or % Δ T/ΔC", "setting": "LOVO Colon carcinoma; 37 mg/kg/day, negative = ΔT/T", "value": "-01", "unit": "%"}, {"measurement": "Final Mean Tumor Wt", "setting": "LOVO Colon carcinoma; 62 mg/kg/day, initial 293 mg", "value": 290, "unit": "mg"}, {"measurement": "% Δ T/T or % Δ T/ΔC", "setting": "LOVO Colon carcinoma; 62 mg/kg/day, negative = ΔT/T", "value": "-01", "unit": "%"}, {"measurement": "% Δ T/T or % Δ T/ΔC", "setting": "LOVO Colon carcinoma; 104 mg/kg/day", "value": -35, "unit": "%"}, {"measurement": "Final Mean Tumor Wt", "setting": "LOVO Colon carcinoma; 104 mg/kg/day, initial 288 mg", "value": 317, "unit": "mg"}, {"measurement": "Final Mean Tumor Wt", "setting": "LX-1-Lung carcinoma; 37 mg/kg/day, initial 330 mg", "value": 341, "unit": "mg"}, {"measurement": "% Δ T/T or % Δ T/ΔC", "setting": "LX-1-Lung carcinoma; 37 mg/kg/day, positive = ΔT/ΔC", "value": "+06%"}, {"measurement": "Final Mean Tumor Wt", "setting": "LX-1-Lung carcinoma; 62 mg/kg/day, initial 327 mg", "value": 277, "unit": "mg"}, {"measurement": "% Δ T/T or % Δ T/ΔC", "setting": "LX-1-Lung carcinoma; 62 mg/kg/day, negative = ΔT/T", "value": -15, "unit": "%"}, {"measurement": "Final Mean Tumor Wt", "setting": "LX-1-Lung carcinoma; 104 mg/kg/day, initial 324 mg", "value": 270, "unit": "mg"}, {"measurement": "% Δ T/T or % Δ T/ΔC", "setting": "LX-1-Lung carcinoma; 104 mg/kg/day, negative = ΔT/T", "value": -17, "unit": "%"}, {"measurement": "Final Mean Tumor Wt", "setting": "[2]; 37 mg/kg/day, initial 367 mg", "value": 516, "unit": "mg"}, {"measurement": "% Δ T/T or % Δ T/ΔC", "setting": "[2]; 37 mg/kg/day", "value": "+41%"}, {"measurement": "Final Mean Tumor Wt", "setting": "[2]; 62 mg/kg/day, initial 375 mg", "value": 471, "unit": "mg"}, {"measurement": "% Δ T/T or % Δ T/ΔC", "setting": "[2]; 62 mg/kg/day", "value": "+26%"}, {"measurement": "Final Mean Tumor Wt", "setting": "[2]; 104 mg/kg/day, initial 367 mg", "value": 433, "unit": "mg"}, {"measurement": "% Δ T/T or % Δ T/ΔC", "setting": "[2]; 104 mg/kg/day", "value": "+18%"}, {"measurement": "Final Mean Tumor Wt", "setting": "MX-1 mammary carcinoma; 62 mg/kg/day, initial 337 mg", "value": 288, "unit": "mg"}, {"measurement": "% Δ T/T or % Δ T/ΔC", "setting": "MX-1 mammary carcinoma; 62 mg/kg/day", "value": -15, "unit": "%"}, {"measurement": "Final Mean Tumor Wt", "setting": "MX-1 mammary carcinoma; 104 mg/kg/day, initial 346 mg", "value": 323, "unit": "mg"}, {"measurement": "% Δ T/T or % Δ T/ΔC", "setting": "MX-1 mammary carcinoma; 104 mg/kg/day", "value": "-07", "unit": "%"}, {"measurement": "Final Mean Tumor Wt", "setting": "MX-1 mammary carcinoma; 173 mg/kg/day, initial 375 mg", "value": 336, "unit": "mg"}, {"measurement": "% Δ T/T or % Δ T/ΔC", "setting": "MX-1 mammary carcinoma; 173 mg/kg/day", "value": -10, "unit": "%"}, {"measurement": "Postinoculation lifespan (T/C)", "setting": "L1210 leukemia; 0.6 mg/kg/day ip, 24-hr infusion, day 1-5", "value": 100}, {"measurement": "Postinoculation lifespan (T/C)", "setting": "L1210 leukemia; 1.7 mg/kg/day ip, 24-hr infusion, day 1-5", "value": 100}, {"measurement": "Postinoculation lifespan (T/C)", "setting": "L1210 leukemia; 4.8 mg/kg/day ip, 24-hr infusion, day 1-5", "value": 100}, {"measurement": "Postinoculation lifespan (T/C)", "setting": "L1210 leukemia; 13 mg/kg/day ip, 24-hr infusion, day 1-5", "value": 113}, {"measurement": "Postinoculation lifespan (T/C)", "setting": "L1210 leukemia; 22 mg/kg/day ip, 24-hr infusion, day 1-5", "value": 126}, {"measurement": "Postinoculation lifespan (T/C)", "setting": "L1210 leukemia; 22 mg/kg/day ip, qd, day 1-7", "value": 103}, {"measurement": "Postinoculation lifespan (T/C)", "setting": "L1210 leukemia; 37 mg/kg/day ip, 24-hr infusion, day 1-5", "value": 126}, {"measurement": "Postinoculation lifespan (T/C)", "setting": "L1210 leukemia; 37 mg/kg/day ip, qd, day 1-7", "value": 93}, {"measurement": "Postinoculation lifespan (T/C)", "setting": "L1210 leukemia; 62 mg/kg/day ip, 24-hr infusion, day 1-5", "value": 137}, {"measurement": "Postinoculation lifespan (T/C)", "setting": "L1210 leukemia; 62 mg/kg/day ip, qd, day 1-7", "value": 103}, {"measurement": "Postinoculation lifespan (T/C)", "setting": "L1210 leukemia; 104 mg/kg/day ip, 24-hr infusion, day 1-5", "value": 137}, {"measurement": "Postinoculation lifespan (T/C)", "setting": "L1210 leukemia; 104 mg/kg/day ip, qd, day 1-7", "value": 98}, {"measurement": "Postinoculation lifespan (T/C)", "setting": "L1210 leukemia; 173 mg/kg/day ip, 24-hr infusion, day 1-5", "value": 131}, {"measurement": "toxicity", "setting": "L1210 leukemia; 288 mg/kg/day ip infusion", "value": "toxic"}, {"measurement": "toxicity", "setting": "L1210 leukemia; 288 mg/kg/day ip infusion, listed as 8Cl-cAMP-Na^+", "value": "killed 2 to 5 mice"}, {"measurement": "Postinoculation lifespan (T/C)", "setting": "L1210 leukemia; 288 mg/kg/day ip, 24-hr infusion, day 1-5, toxic", "value": 128}, {"measurement": "toxicity", "setting": "L1210 leukemia; 480 mg/kg/day ip infusion", "value": "toxic"}, {"measurement": "toxicity", "setting": "L1210 leukemia; 480 mg/kg/day ip infusion, listed as 8Cl-cAMP-Na^+", "value": "lethally toxic for all treated mice"}, {"measurement": "Postinoculation lifespan (T/C)", "setting": "L1210 leukemia; 480 mg/kg/day ip, 24-hr infusion, day 1-5, toxic", "value": 93}, {"measurement": "toxicity", "setting": "L1210 leukemia; 800 mg/kg/day ip infusion", "value": "toxic"}, {"measurement": "toxicity", "setting": "L1210 leukemia; 800 mg/kg/day ip infusion, listed as 8Cl-cAMP-Na^+", "value": "lethally toxic for all treated mice"}, {"measurement": "Postinoculation lifespan (T/C)", "setting": "L1210 leukemia; 800 mg/kg/day ip, 24-hr infusion, day 1-5, toxic", "value": 62}, {"measurement": "toxicity", "setting": "LoVo colon tumors", "value": "appeared to be toxic"}, {"measurement": "mortality", "setting": "[3]; 22 mg/kg ip bolus", "value": 0, "unit": "%"}, {"measurement": "mortality", "setting": "[3]; 37 mg/kg ip bolus", "value": 0, "unit": "%"}, {"measurement": "mortality", "setting": "[3]; 62 mg/kg ip bolus", "value": 0, "unit": "%"}, {"measurement": "mortality", "setting": "[3]; 104 mg/kg ip bolus", "value": 0, "unit": "%"}, {"measurement": "LD50", "setting": "[3]; Single ip dose", "value": 195, "unit": "mg/kg"}, {"measurement": "Toxic deaths, No. killed/No. treated", "setting": "BDF1 mice; 173 mg/kg ip bolus", "value": "2/5"}, {"measurement": "Toxic deaths, No. killed/No. treated", "setting": "BDF1 mice; 173 mg/kg ip bolus, listed as 8Cl-cAMP-Na^+", "value": "killed 2 of 5 mice"}, {"measurement": "Toxic deaths, No. killed/No. treated", "setting": "BDF1 mice; 288 mg/kg ip bolus", "value": "5/5"}, {"measurement": "Toxic deaths, No. killed/No. treated", "setting": "BDF1 mice; 288 mg/kg ip bolus, listed as 8Cl-cAMP-Na^+", "value": "lethally toxic for all treated mice"}, {"measurement": "Toxic deaths, No. killed/No. treated", "setting": "BDF1 mice; 480 mg/kg ip bolus", "value": "5/5"}, {"measurement": "Toxic deaths, No. killed/No. treated", "setting": "BDF1 mice; 480 mg/kg ip bolus, listed as 8Cl-cAMP-Na^+", "value": "lethally toxic for all treated mice"}, {"measurement": "LD10", "setting": "BDF1 mice; Single ip dose", "value": 122, "unit": "mg/kg"}]}
